Source: patent US20110251128A1, “THYMOSIN Beta4 PEPTIDES PROMOTE TISSUE REGENERATION” (The Board of Regents of the University of Texas System, priority 2010, published 2011)
“Also recorded” adds a separate entry of the source. Like-named read-outs stand apart in the source and are kept apart here.

Assays:
[1] = test system: C57BL/6J male mice after coronary ligation; test: Myocardial infarction by LAD coronary ligation in adult mice: echocardiography, scar volume, myocyte size; format: in vivo, mouse
From the text: Animals and Surgical procedures. Mice: Myocardial infarctions were produced in seventy C57BL/6J male mice at 16 weeks of age (25-30 g) by ligation of the left anterior descending (LAD) coronary artery as described (Garner et al., 2003). All animal protocols were reviewed and approved by the University of Texas Southwestern Medical School Institutional Animal Care Advisory Committee and were in compliance with the rules governing animal use as published by the NIH. Mice were sedated in an isoflurane chamber (5%) for 60 seconds until self-designed coaxial mask could be safely applied. The mask supplied continuous isoflurane (2.0%) and oxygen (98.0%) under positive pressure from a Harvard small animal respirator throughout the procedures. Immediately after ligation mice were injected with 200 ng of peptide in […] or […] PBS in collagen intracardially in the infarction border, and with […] PBS intraperitoneally as described (Bock-Marquette et al., 2004). Intraperitoneal injections were repeated every three days after ligation. Effective doses of the peptides were calculated based on optimal in vitro cell migration effect and on biodistribution calculations of full length TB4 (Mora et al., 1997). The inventors administered buprenorphine (0.05 mg/kg) for post-operative pain control. Hearts were removed 1, 14 and 21 days after ligation and processed for further investigations.
Analysis of cardiac function by echocardiography: Echocardiograms to assess systolic function were performed using M-mode and 2-dimensional measurements as described previously (Garner et al., 2003). The measurements represented the average of six selected cardiac cycles from at least two separate scans performed in random-blind fashion with papillary muscles used as a point of reference for consistency in level of scan. End diastole was defined as the maximal left ventricle (LV) diastolic dimension and end systole was defined as the peak of posterior wall motion. Single outliers in each group were omitted for statistical analysis. Fractional shortening (FS), a surrogate of systolic function, was calculated from LV dimensions as follows: FS=[(EDD−ESD)/EDD]×100%. Ejection fraction (EF) was calculated as follows: EF=[(edd^3−esd^3)/edd^3]×100%. EDD, end diastolic dimension; ESD, end systolic dimension.
Calculation of scar volume and myocyte size: Scar volume was calculated after Masson's trichrome staining in six sections through the heart of each mouse using Openlab 3.03 software (Improvision) similar to previously described (Bock-Marquette et al., 2004). Percent area of collagen deposition was measured on each section in blinded fashion and averaged for each mouse.

adult infarcted pigs = test: Ischemia reperfusion (acute myocardial infarction) in pigs with retroinfusion of peptides; format: in vivo, pig
Protocol: Pigs: German pigs were purchased from the animal research department of the Ludwig-Maximilians-University (Oberschleissheim, Germany). Animal care and all experimental procedures were performed in accordance to the German and NIH animal legislation guidelines and were approved by the Bavarian Animal Care and Use Committee (AZ 55.2-1-54-2531-26/09). All animal experiments were conducted at the Walter Brendel Centre of Experimental Medicine, University of Munich.
Ischemia reperfusion experiments: Pigs (n=5/experimental group) were anesthetized and instrumented as described previously (Hinkel et al., 2008). Briefly, a balloon was placed in the left anterior descending artery (LAD) distal to the bifurcation of the first diagonal branch and inflated for 60 min. Correct localization of the coronary occlusion and patency of the first diagonal branch were ensured by injection fluoroscopy. Regional application of TB4 peptides or saline solution was performed via selective pressure regulated retroinfusion for 10 min into the anterior interventricular vein (AIV) draining the LAD-perfused myocardium (Kupatt et al., 2005).
Global myocardial function: At day 0 before ischemia induction and after 24 h of reperfusion myocardial function was obtained via Millar pressure tip catheter. Therefore the Millar pressure tip catheter was placed in the left ventricle and left ventricular pressure was recorded for off-line analysis.
Regional myocardial function: 24 hours after induction of ischemia, sternotomy was performed and ultrasonic crystals were placed subendocardial into the area at risk, the infracted area as well as into the Cx perfusion area in a standardized manner. Subendocardial segment shortening (SES) was assessed under resting heart rate as well as at 120 and 150 beats/min atrial pacing (for 1 min/each).
Infarct size and local inflammation: For assessment of infarct size methylene blue was injected in the left ventricle for negative staining of the AAR and tetrazolium red was applied into the LAD for viability staining in the infracted area. Thereafter, left ventricle was cut into slices (5 mm thick), and subjected to digital photography. Planimetry of different slices was conducted via ImageJ for assessment of infarct size in % of AAR. Tissue samples from infarct, area at risk and non-ischemic control were harvested for leukocyte recruitment. Myeloperoxidase assays were performed as previously described (Kupatt et al., 2005).

cardiomyocytes = test: TUNEL assay on hearts after coronary ligation; format: in vivo, mouse; conditions: 24 h after ligation
From the text: (§1) Animals and Surgical procedures. Mice: Myocardial infarctions were produced in seventy C57BL/6J male mice at 16 weeks of age (25-30 g) by ligation of the left anterior descending (LAD) coronary artery as described (Garner et al., 2003). All animal protocols were reviewed and approved by the University of Texas Southwestern Medical School Institutional Animal Care Advisory Committee and were in compliance with the rules governing animal use as published by the NIH. Mice were sedated in an isoflurane chamber (5%) for 60 seconds until self-designed coaxial mask could be safely applied. The mask supplied continuous isoflurane (2.0%) and oxygen (98.0%) under positive pressure from a Harvard small animal respirator throughout the procedures. […] Effective doses of the peptides were calculated based on optimal in vitro cell migration effect and on biodistribution calculations of full length TB4 (Mora et al., 1997). […]
(§2) Immunohistochemistry. Adult mouse cardiac tissue was fixed in 4% paraformaldehyde and sections were analyzed by immunohistochemistry. […] Number of sm a-actin positive capillaries and Wt-1 positive cells were counted at the infarction border zone in high power photographs at all levels of the sections in three peptide, TB4 and PBS treated hearts respectively.

[2] = test system: Wt-1 positive cardiac progenitors; test: Immunohistochemistry, Wt-1 positive progenitor cells at infarction border; format: in vivo, mouse; conditions: border of the infarction, 21 days / three weeks after peptide injections
From the text: as §1, §2

pS368-Cx43 = test: Western blot of pS368-Connexin43 in infarcted hearts; format: in vivo, mouse; conditions: ischemic border, 21 days, compared to PBS
From the text: as §1
Western blot. […] The protein fraction was isolated from the interphase of the Trizol purification as recommended by the manufacturer; 10 μg of the total protein was loaded and analyzed by Western blot with protein-specific primary antibodies: VEGF, p-Marcks, p-Akt, and GAPDH (1:100) (Santa Cruz), Connexin43 (1:50) (Invitrogen), N-Cadherin (1:5000) (BD Biosciences) and pS368-Connexin43 (1:1000) (Cell Signaling Technology).

full thickness wound = conditions: cited from earlier work; for increase of epithelial layer restoration in the wound: topical or injected, compared to untreated
[3] = 21 days after ligation, compared to PBS
[4] = three weeks after ligation, intracardiac once plus intraperitoneal every three days

## Thymosin β4 [TB4]
[1]; [3]
  myocyte diameter / size in the ischemic area: increased myocyte diameter; also recorded: significantly increase the size of surviving cardiomyocytes
  scar (Masson's trichrome staining): significant reduction of the scar
[1]; after three weeks
  end systolic diameter (ESD): significantly decreased
[1]; [4]
  calculated ejection fraction (EF): 50.9+/−3.6%
  mean fractional shortening (FS): 87.4+/−2.6%
Adult infarcted pigs; after ischemia and 24 h reperfusion
  left ventricular end-diastolic pressure: 10.4+/−0.8 mmHg
Adult infarcted pigs; at rest and under increased heart rate (atrial pacing)
  regional myocardial function in the infarcted area: significantly improved
Adult infarcted pigs; in % of AAR, 60 min occlusion, retroinfusion at onset of reperfusion, n=5
  infarct size: 35+/−3%
Adult infarcted pigs; ischemic heart tissue after retroinfusion
  post-ischemic inflammatory leukocyte influx (myeloperoxidase activity): reduced post-ischemic inflammatory leukocyte influx
cardiomyocytes
  TUNEL positive cardiomyocytes (myocardial cell death): significant decrease of myocardial cell death
[2]
  number of Wt-1 positive cells: increased significantly; also recorded: significant increase
pS368-Cx43
  pS368-Cx43 (Cx43 phosphorylation): significantly lower; also recorded: decrease in Cx43 phosphorylation
Full thickness wound; by day four
  increase of epithelial layer restoration in the wound: 42%
Full thickness wound; by day seven
  increase of epithelial layer restoration in the wound: 61%
Full thickness wound; compared to untreated wounds
  wound contraction: more than 11%
Full thickness wound; rat, in vivo
  collagen deposition in the wound and angiogenesis: stimulated collagen deposition
